Active and inactive are the calls of the source. The rule behind the calls is not given here.
What was measured:
[1] = target: Kappa-type opioid receptor (Homo sapiens, UniProt P41145); test: Displacement of [3H]U69593 from human kappa-opioid receptor stably expressed in HEK cell membrane after 90 mins by scintillation counting method; format: cell membranes, HEK293
[2] = target: Muscarinic acetylcholine receptor M5 (Homo sapiens) (UniProt P08912); test: Displacement of [3H]NMS from human Muscarinic acetylcholine M5 receptor stably expressed in CHO cell after 90 mins by scintillation counting method; format: cell-based
D(1A) dopamine receptor = D(1A) dopamine receptor (Homo sapiens, UniProt P21728); test: Displacement of [3H]SCH23390 from human recombinant dopamine D1 receptor expressed in HEKT cell membrane after 90 mins by scintillation counting method; format: cell membranes
[3] = target: D(1B) dopamine receptor (Homo sapiens) (UniProt P21918); test: Displacement of [3H]SCH23390 from human recombinant dopamine D5 receptor expressed in HEKT cell membrane after 90 mins by scintillation counting method; format: cell membranes
[4] = target: Alpha-1B adrenergic receptor (Homo sapiens) (UniProt P35368); test: Displacement of [3H]Prazosin from human recombinant alpha 1B receptor expressed in HEKT cell membrane after 90 mins by scintillation counting method; format: cell membranes
[5] = target: Alpha-2A adrenergic receptor (Homo sapiens, UniProt P08913); test: Displacement of [3H]Rauwolscine from human recombinant alpha 2A receptor stably expressed in MDCK cells after 90 mins by scintillation counting method; format: cell-based
[6] = target: Beta-1 adrenergic receptor (Homo sapiens, UniProt P08588); test: Displacement of [3H]CGP12177 human recombinant beta 1 adrenergic recptor expressed in CHO Flp-In cells after 90 mins by scintillation counting method; format: cell-based
[7] = target: T1, 5-hydroxytryptamine receptor 2C (Homo sapiens) (UniProt P28335); test: Displacement of [3H]mesulergine from human recombinant 5-HT2C receptor expressed in Flp-IN HEK cell membrane at 10 uM after 90 mins by scintillation counting method; format: cell membranes; conditions: HEK293
T1 sequence (whole entry): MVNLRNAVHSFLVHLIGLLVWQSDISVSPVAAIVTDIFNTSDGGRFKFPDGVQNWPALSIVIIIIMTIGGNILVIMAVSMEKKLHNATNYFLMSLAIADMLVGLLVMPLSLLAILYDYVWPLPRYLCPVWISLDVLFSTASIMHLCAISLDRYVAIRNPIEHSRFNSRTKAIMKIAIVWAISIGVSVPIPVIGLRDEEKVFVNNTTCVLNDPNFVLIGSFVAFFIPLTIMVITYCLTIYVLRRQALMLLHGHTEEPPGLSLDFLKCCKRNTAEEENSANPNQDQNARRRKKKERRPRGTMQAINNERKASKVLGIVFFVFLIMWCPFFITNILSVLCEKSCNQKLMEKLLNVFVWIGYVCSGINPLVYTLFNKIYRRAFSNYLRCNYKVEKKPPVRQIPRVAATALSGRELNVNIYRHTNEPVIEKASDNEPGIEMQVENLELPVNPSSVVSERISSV

[8] = target: 5-hydroxytryptamine receptor 7 (Homo sapiens, UniProt P34969); test: Displacement of [3H]LSD from human recombinant 5-HT7A receptor stably expressed in HEKT cell membrane after 90 mins by scintillation counting method; format: cell membranes
D(2) dopamine receptor = D(2) dopamine receptor (Homo sapiens, UniProt P14416); test: Displacement of [3H]N-methylspiperone from human recombinant dopamine D2 receptor expressed in stable fibroblast after 90 mins by scintillation counting method
[9] = target: 5-hydroxytryptamine receptor 2A (Homo sapiens, UniProt P28223); test: Agonist activity at human recombinant 5-HT2A receptor expressed in Flp-In HEK cells preincubated for 10 mins by FLIPR based calcium mobilization assay; format: functional, cell-based; conditions: HEK293
HEK293 = test: Selectivity ratio of Ki for human recombinant 5-HT2A receptor expressed in HEKT cell membrane to Ki for human recombinant 5-HT2B receptor stably expressed in HEK cells; format: cell-based
[10] = target: 5-hydroxytryptamine receptor 6 (Homo sapiens) (UniProt P50406); test: Displacement of [3H]LSD from human recombinant 5-HT6 receptor stably expressed in HEK cell membrane by scintillation counting method; format: cell membranes; conditions: HEK293
[11] = target: Sodium-dependent serotonin transporter (Homo sapiens, UniProt P31645); test: Displacement of [3H]Citalopram from human serotonin transporter transporter stably expressed in HEK293 cells after 30 mins by neurotransmitter transporter uptake assay; format: cell-based
[12] = target: Alpha-1D adrenergic receptor (Homo sapiens, UniProt P25100); test: Displacement of [3H]Prazosin from human recombinant alpha 1D receptor after 90 mins by scintillation counting method
[13] = target: Alpha-2B adrenergic receptor (Homo sapiens, UniProt P18089); test: Displacement of [3H]Rauwolscine from human recombinant alpha 2B receptor expressed in HEKT cells after 90 mins by scintillation counting method; format: cell-based
[14] = target: Muscarinic acetylcholine receptor M3 (Homo sapiens) (UniProt P20309); test: Displacement of [3H]QNB from human Muscarinic acetylcholine M3 receptor stably expressed in CHO cell after 90 mins by scintillation counting method; format: cell-based
[15] = target: Muscarinic acetylcholine receptor M4 (Homo sapiens) (UniProt P08173); test: Displacement of [3H]QNB from human Muscarinic acetylcholine M4 receptor stably expressed in CHO cell after 90 mins by scintillation counting method; format: cell-based
[16] = target: Muscarinic acetylcholine receptor M2 (Homo sapiens) (UniProt P08172); test: Displacement of [3H]NMS from human Muscarinic acetylcholine M2 receptor stably expressed in CHO cell after 90 mins by scintillation counting method; format: cell-based
[17] = target: Muscarinic acetylcholine receptor M1 (Homo sapiens) (UniProt P11229); test: Displacement of [3H]NMS from human Muscarinic acetylcholine M1 receptor stably expressed in CHO cell after 90 mins by scintillation counting method; format: cell-based
[18] = target: Sodium-dependent dopamine transporter (Homo sapiens, UniProt Q01959); test: Displacement of [3H]WIN35428 from human dopamine transporter stably expressed in HEK293 cells after 30 mins by neurotransmitter transporter uptake assay; format: cell-based
[19] = target: T1, 5-hydroxytryptamine receptor 2C (Homo sapiens); test: Agonist activity at human recombinant 5-HT2C receptor expressed in Flp-In HEK cells preincubated for 10 mins by FLIPR based calcium mobilization assay; format: functional, cell-based; conditions: HEK293
[20] = target: Muscarinic acetylcholine receptor M5 (Homo sapiens) (UniProt P08912); test: Displacement of [3H]QNB from human Muscarinic acetylcholine M5 receptor stably expressed in CHO cell after 90 mins by scintillation counting method; format: cell-based
[21] = target: Histamine H3 receptor (Homo sapiens) (UniProt Q9Y5N1); test: Displacement of [3H]alpha-methylhistamine from human H3 Histamine receptors expressed in HEK Flp-In cell after 90 mins by scintillation counting method; format: cell-based; conditions: HEK293
[22] = target: Delta-type opioid receptor (Homo sapiens) (UniProt P41143); test: Displacement of [3H]DADLE from human delta-opioid receptor stably expressed in HEK cell membrane after 90 mins by scintillation counting method; format: cell membranes; conditions: HEK293
Mu-type opioid receptor = Mu-type opioid receptor (Homo sapiens, UniProt P35372); test: Displacement of [3H]DAMGO from human mu-opioid receptor stably expressed in HEK cell membrane after 90 mins by scintillation counting method; format: cell membranes, HEK293
[23] = target: 5-hydroxytryptamine receptor 1B (Homo sapiens) (UniProt P28222); test: Displacement of [3H]5-CT from human recombinant 5-HT1B receptor stably expressed in HEK cell membrane after 90 mins by scintillation counting method; format: cell membranes; conditions: HEK293
[24] = target: Translocator protein (Rattus norvegicus) (UniProt P16257); test: Displacement of [3H]PK11195 from rat brain PBR after 90 mins by scintillation counting method
Sequence of Translocator protein (Rattus norvegicus) (P16257 whole entry, looked up): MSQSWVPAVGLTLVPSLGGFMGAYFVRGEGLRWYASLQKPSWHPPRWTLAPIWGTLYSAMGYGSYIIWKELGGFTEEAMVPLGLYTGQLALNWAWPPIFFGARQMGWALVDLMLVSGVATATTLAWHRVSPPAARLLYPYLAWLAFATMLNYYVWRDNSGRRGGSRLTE

Sequence of Muscarinic acetylcholine receptor M5 (Homo sapiens) (P08912 whole entry): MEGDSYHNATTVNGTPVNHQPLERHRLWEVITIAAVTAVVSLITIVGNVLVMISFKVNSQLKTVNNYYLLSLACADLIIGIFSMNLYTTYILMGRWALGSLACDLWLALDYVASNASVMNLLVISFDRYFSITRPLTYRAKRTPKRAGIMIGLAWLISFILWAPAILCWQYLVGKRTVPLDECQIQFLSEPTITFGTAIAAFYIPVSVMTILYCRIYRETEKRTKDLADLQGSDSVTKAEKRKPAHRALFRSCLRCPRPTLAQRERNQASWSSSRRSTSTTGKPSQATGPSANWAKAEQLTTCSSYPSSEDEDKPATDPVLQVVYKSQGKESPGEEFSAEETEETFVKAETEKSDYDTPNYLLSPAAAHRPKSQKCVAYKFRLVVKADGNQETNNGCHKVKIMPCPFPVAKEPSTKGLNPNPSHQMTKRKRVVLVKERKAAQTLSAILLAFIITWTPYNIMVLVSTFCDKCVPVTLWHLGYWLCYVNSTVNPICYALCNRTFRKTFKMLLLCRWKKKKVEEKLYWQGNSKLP
Sequence of 5-hydroxytryptamine receptor 2A (P28223 whole entry): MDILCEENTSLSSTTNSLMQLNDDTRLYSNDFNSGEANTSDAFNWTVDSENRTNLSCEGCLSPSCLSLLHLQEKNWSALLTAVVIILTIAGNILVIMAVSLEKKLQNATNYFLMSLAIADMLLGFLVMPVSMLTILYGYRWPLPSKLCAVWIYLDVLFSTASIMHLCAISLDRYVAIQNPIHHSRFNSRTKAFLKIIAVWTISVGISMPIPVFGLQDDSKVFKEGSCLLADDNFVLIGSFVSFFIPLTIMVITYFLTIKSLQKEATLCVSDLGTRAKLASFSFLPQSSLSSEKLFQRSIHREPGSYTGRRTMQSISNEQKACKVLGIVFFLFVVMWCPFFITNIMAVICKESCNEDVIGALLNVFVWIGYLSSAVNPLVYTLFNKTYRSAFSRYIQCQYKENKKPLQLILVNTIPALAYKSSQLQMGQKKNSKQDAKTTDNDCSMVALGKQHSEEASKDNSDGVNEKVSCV
Sequence of Delta-type opioid receptor (Homo sapiens) (P41143 whole entry): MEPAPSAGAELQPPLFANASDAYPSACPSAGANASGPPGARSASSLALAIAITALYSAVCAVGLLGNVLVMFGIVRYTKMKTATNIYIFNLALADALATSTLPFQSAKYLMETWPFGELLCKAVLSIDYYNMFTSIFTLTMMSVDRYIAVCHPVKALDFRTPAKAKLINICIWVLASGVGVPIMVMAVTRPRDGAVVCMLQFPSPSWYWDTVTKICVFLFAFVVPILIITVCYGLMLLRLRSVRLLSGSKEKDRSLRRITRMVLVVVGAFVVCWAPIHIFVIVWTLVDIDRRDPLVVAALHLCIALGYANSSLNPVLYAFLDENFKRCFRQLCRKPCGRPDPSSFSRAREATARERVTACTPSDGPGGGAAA
Sequence of Alpha-1D adrenergic receptor (P25100 whole entry): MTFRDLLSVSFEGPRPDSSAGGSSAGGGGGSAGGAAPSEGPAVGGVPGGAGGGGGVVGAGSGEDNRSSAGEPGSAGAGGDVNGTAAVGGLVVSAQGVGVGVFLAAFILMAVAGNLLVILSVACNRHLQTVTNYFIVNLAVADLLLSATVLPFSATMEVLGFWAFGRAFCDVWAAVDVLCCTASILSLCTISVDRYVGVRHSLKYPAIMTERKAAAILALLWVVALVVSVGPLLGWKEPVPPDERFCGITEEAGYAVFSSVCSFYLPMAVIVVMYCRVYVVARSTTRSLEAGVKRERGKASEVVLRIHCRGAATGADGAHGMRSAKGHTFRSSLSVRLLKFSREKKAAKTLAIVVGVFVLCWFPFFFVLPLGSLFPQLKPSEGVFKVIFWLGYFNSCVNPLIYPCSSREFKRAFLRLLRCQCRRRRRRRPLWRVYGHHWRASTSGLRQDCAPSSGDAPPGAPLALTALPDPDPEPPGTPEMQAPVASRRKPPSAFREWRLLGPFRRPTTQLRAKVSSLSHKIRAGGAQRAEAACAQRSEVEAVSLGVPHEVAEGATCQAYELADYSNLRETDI
Sequence of D(2) dopamine receptor (P14416 whole entry): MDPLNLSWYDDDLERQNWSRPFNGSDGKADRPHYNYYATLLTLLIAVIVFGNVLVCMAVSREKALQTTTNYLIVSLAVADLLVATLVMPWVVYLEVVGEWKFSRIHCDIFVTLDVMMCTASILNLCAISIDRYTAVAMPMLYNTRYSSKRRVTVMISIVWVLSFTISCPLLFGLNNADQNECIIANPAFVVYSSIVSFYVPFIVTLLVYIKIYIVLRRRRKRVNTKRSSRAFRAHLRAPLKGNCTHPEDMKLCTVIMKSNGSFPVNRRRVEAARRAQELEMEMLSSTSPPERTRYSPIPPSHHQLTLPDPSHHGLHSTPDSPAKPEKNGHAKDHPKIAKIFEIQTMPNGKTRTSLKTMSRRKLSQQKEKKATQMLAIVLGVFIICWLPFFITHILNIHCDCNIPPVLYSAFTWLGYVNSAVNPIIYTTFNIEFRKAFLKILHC
Sequence of 5-hydroxytryptamine receptor 7 (P34969 whole entry): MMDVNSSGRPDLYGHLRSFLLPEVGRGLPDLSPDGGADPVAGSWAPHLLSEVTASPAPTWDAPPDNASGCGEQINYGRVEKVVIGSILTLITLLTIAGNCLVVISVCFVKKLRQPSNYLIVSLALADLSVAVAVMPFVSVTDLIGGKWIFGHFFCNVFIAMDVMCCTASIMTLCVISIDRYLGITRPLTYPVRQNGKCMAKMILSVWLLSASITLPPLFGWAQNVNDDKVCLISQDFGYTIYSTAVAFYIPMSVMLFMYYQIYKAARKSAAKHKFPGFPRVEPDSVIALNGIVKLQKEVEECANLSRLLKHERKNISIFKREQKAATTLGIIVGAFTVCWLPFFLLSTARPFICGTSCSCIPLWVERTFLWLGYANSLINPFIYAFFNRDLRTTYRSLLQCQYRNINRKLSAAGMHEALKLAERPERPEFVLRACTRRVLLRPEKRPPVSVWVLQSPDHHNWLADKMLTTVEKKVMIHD
Sequence of Muscarinic acetylcholine receptor M4 (Homo sapiens) (P08173 whole entry): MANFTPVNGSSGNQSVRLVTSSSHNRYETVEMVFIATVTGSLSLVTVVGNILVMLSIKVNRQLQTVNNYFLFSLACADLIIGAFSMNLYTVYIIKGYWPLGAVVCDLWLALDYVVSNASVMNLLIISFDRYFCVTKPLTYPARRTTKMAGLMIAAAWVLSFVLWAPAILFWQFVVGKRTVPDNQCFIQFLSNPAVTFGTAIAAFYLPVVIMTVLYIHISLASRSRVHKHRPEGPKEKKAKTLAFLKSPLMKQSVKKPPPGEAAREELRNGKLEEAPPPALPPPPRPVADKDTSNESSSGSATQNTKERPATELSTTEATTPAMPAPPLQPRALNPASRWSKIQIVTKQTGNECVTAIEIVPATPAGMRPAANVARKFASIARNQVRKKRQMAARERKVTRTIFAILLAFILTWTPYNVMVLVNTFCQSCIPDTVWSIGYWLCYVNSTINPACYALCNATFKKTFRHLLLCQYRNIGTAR
Sequence of D(1B) dopamine receptor (Homo sapiens) (P21918 whole entry): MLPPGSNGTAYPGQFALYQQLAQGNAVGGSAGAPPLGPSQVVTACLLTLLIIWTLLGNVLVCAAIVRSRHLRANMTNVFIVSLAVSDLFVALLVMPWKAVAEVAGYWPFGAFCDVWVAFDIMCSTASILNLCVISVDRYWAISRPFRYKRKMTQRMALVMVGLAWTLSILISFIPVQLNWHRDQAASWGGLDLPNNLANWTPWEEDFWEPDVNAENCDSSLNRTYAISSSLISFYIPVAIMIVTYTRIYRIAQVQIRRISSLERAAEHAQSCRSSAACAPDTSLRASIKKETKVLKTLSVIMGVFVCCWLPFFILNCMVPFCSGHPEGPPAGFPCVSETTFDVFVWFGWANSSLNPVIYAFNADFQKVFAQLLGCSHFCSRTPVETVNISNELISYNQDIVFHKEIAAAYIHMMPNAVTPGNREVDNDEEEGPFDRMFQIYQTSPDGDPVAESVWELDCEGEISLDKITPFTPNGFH
Sequence of 5-hydroxytryptamine receptor 1B (Homo sapiens) (P28222 whole entry): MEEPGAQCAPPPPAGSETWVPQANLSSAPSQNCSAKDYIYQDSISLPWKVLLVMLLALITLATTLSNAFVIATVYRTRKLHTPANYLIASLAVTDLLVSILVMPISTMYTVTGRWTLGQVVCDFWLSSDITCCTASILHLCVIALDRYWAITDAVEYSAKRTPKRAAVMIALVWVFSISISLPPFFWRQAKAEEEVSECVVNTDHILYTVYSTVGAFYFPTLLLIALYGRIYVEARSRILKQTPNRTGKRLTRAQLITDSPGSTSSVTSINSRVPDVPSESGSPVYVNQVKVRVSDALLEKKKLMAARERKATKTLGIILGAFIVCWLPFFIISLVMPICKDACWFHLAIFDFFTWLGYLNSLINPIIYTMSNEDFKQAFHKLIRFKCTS
Sequence of Alpha-2A adrenergic receptor (P08913 whole entry): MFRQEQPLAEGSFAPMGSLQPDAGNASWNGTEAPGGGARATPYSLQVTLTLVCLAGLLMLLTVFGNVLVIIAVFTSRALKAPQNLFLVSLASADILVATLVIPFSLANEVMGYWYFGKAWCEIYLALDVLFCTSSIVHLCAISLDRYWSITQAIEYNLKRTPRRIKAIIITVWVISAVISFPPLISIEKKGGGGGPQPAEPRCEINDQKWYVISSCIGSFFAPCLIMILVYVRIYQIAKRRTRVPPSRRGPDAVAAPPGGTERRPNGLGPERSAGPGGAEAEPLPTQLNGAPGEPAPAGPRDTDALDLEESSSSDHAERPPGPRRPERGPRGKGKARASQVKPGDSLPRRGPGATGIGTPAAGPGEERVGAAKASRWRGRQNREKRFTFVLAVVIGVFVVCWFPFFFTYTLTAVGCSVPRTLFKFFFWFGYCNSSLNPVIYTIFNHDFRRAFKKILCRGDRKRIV

COc1ccc(CCN(CCCc2ccccc2)CCc2ccc3c(c2)OCO3)cc1OC
Ki [1]: 363 nM | Activity [2]: inactive | Ki (D(1A) dopamine receptor): 1680 nM | Activity [3]: inactive | Activity [4]: inactive | Ki [5]: 102 nM | Ki [6]: 1890 nM | inhibition [7]: > 50% | Ki [8]: 700 nM | Ki (D(2) dopamine receptor): 1730 nM | Activity [9]: inactive | Ratio Ki (HEK293): 6 | Activity [10]: inactive | Ki [11]: 1000 nM | Ki [12]: 467 nM | Ki [13]: 29 nM | Activity [14]: inactive | Activity [15]: inactive | Activity [16]: inactive | Activity [17]: inactive | Ki [18]: 498 nM | Activity [19]: inactive | Activity [20]: inactive | Activity [21]: inactive | Activity [22]: inactive | Ki (Mu-type opioid receptor): 341 nM | Activity [23]: inactive | Activity [24]: inactive
